Results as given in patent US20140142023A1, “Pharmaceutical Composition for Treating A Metabolic Syndrome” (SANOFI, priority 2011, published 2014).
Ends that are not written are not given here.

Legend:
[1] = tested on: Type 2 diabetic patients; conditions: doses elevating plasma concentrations to approximately 3-4 fold physiological postprandial levels (Nauck 1997); cited from earlier work
[2] = tested on: db/db mice; assay: Fed blood glucose in db/db mice (age of 6 weeks); type: in vivo; conditions: fed conditions, up to 4 weeks, AVE0010 0.05, FGF-21 0.75 mg/kg/day s.c. or combined
Protocol: (§1) Female db/db mice (BKS.Cg-m+/+Leprdb/J, age of 6 weeks) were treated with vehicle (PBS), 0.05 mg·kg^−1·day^−1 AVE0010, 0.75 mg·kg^−1·day^−1 recombinant human FGF-21 (SEQ ID NO: 2) or a combined dose of FGF-21 (SEQ ID NO: 2) and AVE0010 (0.75+0.05 mg·kg^−1·day^−1) subcutaneously once daily. Mice were fed ad libitum. Before the first treatment, after one week and 4 weeks blood glucose and HbA1c were measured under fed conditions. After 21 days of treatment an oral glucose tolerance test (OGTT) was initiated. Fasted mice were orally challenged with 2 g·kg^−1 glucose solution and blood glucose was measured at indicated time points.

[3] = tested on: db/db mice; assay: Oral glucose tolerance test (OGTT) in db/db mice after 21 days; type: in vivo; conditions: after 21 days of treatment, 2 g/kg oral glucose, vs vehicle treated obese control
Protocol: as §1

Row | Substance | fasting hyperglycaemia [1] | blood glucose [2] | glucose tolerance (OGTT) [3]
1 | GLP-1(7-27): bioactive GLP-1; probably GLP-1(7-37), SEQ ID NO: 3 (HAEGTFTSDVSSYLEGQAAKEFIAWLVKGRG; Fragment of human GLP-1 (7 to 37)) | fully normalizes | – | –
2 | AVE0010: GLP-1R agonist, SEQ ID NO: 9; sequence identical to lixisenatide SEQ ID NO: 8 [reference compound] | – | inhibition of blood glucose increase | small improvement
3 | GLP-1(7-36 amide): bioactive GLP-1, SEQ ID NO: 4 (HAEGTFTSDVSSYLEGQAAKEFIAWLVKGR-NH2) | fully normalizes | – | –
